The values below come from ChEMBL document CHEMBL1150845, “Two new constituents of Isodon excisus and their evaluation in an apoptosis inhibition assay” (J Nat Prod, 2001).

A word on the IC50: it is the concentration that gives 50% inhibition.

≈ marks a conversion by molar mass, not a printed value.

This assay has as its system U-937. As to the kind of experiment: Inhibition of etoposide-induced apoptosis in human U937 cells assessed as inhibition of caspase 3 induction after 7 hrs. The assay is classed as functional, cell-based. Conditions: U-937, 7 h.
In the case of `S=C(S)N1CCCC1` [PYRROLIDINE DITHIOCARBAMATE], the IC50 is 8.3 mg/L (≈ 56.4 µM).
In the case of `COC(=O)C[C@H](OC(=O)/C=C/c1ccc(O)c(O)c1)c1ccc(O)c(O)c1`, the IC50 came out at 52.4 mg/L (≈ 140 µM).
On to `COc1cc(/C=C/C(=O)NC[C@@H](OC)c2ccc(O)cc2)ccc1O`, for which the 50% inhibitory concentration (IC50) stood at 10.2 mg/L (≈ 29.7 µM).
